Reference: patent publication US20230181554A1, “AGENT FOR PROTECTING AND/OR REGENERATING NEUROMUSCULAR JUNCTION” (ONO PHARMACEUTICAL CO., LTD., priority 2020, published 2023)

Legend:
[1] = tested on: co-culture of mouse myoblast cell line C2C12 cells into which human mutant SOD1 (G93A) was introduced and mouse primary cultured motor neurons; assay: Neuromuscular junction formation in co-culture, α-bungarotoxin-positive area; assay type: cell-based; conditions: for concentration from which the positive area of the neuromuscular junction was significantly increased: α-bungarotoxin-positive area on day 11 after treatment, versus control (Dunnett's test); for positive area of the neuromuscular junction: day 11
[2] = tested on: mouse primary cultured motor neurons; assay: Neurite outgrowth action in mono-culture of motor neurons; assay type: cell-based; conditions: total protrusion length on day 4 after treatment, versus control (Dunnett's test)
Procedure: In a mono-culture system of mouse primary cultured motor neurons, the neurite outgrowth action of a sterol C14-reductase inhibitor (TM7SF2 inhibitor) and FF-MAS was evaluated. The mouse primary cultured motor neurons were prepared from an embryonic day 13 mouse fetus. In other words, a mouse on day 13 of gestation was subjected to cervical dislocation and euthanized, and the abdomen was incised to extract the fetus. The fetus was decapitated, and then the spinal cord was extracted under a stereomicroscope. The spinal cord was treated with HBSS containing 0.25% trypsin at 37° C. for 15 minutes, then the supernatant was removed, washing was performed 3 times with HBSS, 2 mL of a dispersion solution was added, and pipetting was repeated with a tapered Pasteur pipette to prepare a cell suspension. The cell suspension was centrifuged (200 g, 5 minutes), 2 mL of a motor neuron medium was added to the sediment, the suspension was resuspended, and the number of cells was measured. The mouse primary cultured motor neurons suspended in the motor neuron medium were seeded on a 96-well imaging plate coated with poly-D-lysine at 1.5×10^4 cells/100 μL/well. […] The neurite length was evaluated by immunostaining the nuclei and protrusions of nerve cells. […] As primary antibodies, Anti-Neuron-specific beta-III Tubulin Antibody (R&D Systems, Inc., MAB1195, 1/1,000 dilution) and Anti-NeuN Antibody (Merck Millipore, ABN78, 1/500 dilution) diluted with a blocking solution were added in an amount of 50 and the plate was allowed to stand at 4° C. overnight. After washing 3 times with 100 to 150 μL/well of PBS, 50 μL/well of Alexa Fluor 647 goat anti-mouse IgG (H+L) (Invitrogen, A-21236, 1/1,000 dilution) and Alexa Fluor 488 goat anti-rabbit IgG (H+L) (Invitrogen, A-11034, 1/1,000 dilution) as secondary antibodies were added, and the plate was allowed to stand at room temperature for 1 hour while being shielded from light, and then washed 3 times with 100 to 150 μL/well of PBS. The stained plate was photographed using the Opera Phenix high-throughput high-content imaging system ([…] Japan). Images of 5 fields per well were acquired using an Alexa Fluor 647 wavelength filter for photographing neurites and an Alexa Fluor 488 wavelength filter for photographing nuclei of nerve cells, nuclei of nerve cells and neurites per field were analyzed by an analysis program, and the sum of neurite lengths per field was calculated. Taking the mean of the sum of neurite lengths in the vehicle group (0.03% DMSO or 0.2% ethanol) evaluated for each plate as 100%, the sum of neurite lengths in the sterol C14-reductase inhibitor (TM7SF2 inhibitor) and FF-MAS treatment groups was calculated.

[3] = tested on: rat primary Schwann cells; assay: Schwann cell differentiation-promoting action (MAG expression); assay type: cell-based; conditions: day 3 after treatment, versus control (Dunnett's test)
Procedure: The Schwann cell differentiation-promoting action of FF-MAS was evaluated in a culture system of rat primary Schwann cells. In other words, neonatal rats aged 0 to 2 days after birth were decapitated, then sterilized by being immersed in ethanol for disinfection, moved to a clean bench, and then washed with a recovery medium (Dulbecco's modified Eagle medium (Sigma Aldrich, product number D5921) without phenol red containing 1 vol % Antibiotic-Antimycotic (Antibiotic-Antimycotic 100×, Thermo Fisher Scientific, Inc., product number 15240062)). Thereafter, the dorsal root ganglion was extracted under a microscope and recovered in a 15 mL tube filled with the recovery medium. The recovered tube was centrifuged at 400 g for 3 minutes at room temperature, and the supernatant was removed. […] The number of cells in the filtered cell suspension was counted and adjusted to 2.0×10^5 cells/mL, and then the cells were seeded on a 96-well plate coated with poly-D-lysine at 100 μL/well each, and statically cultured in a CO2 incubator under conditions of 5% CO2, 95% air, and 37° C. […] The Schwann cell differentiation-promoting action was evaluated on the basis of the expression level of myelin-associated glycoprotein (hereinafter referred to as MAG). […]

[4] = tested on: mouse myoblast cell line C2C12 cells into which human mutant SOD1 (G93A) was introduced; assay: FF-MAS and 14-dehydrozymosterol accumulation action in myotube-like differentiated C2C12 cells (LC/APCI-MS/MS); assay type: cell-based; conditions: for intracellular FF-MAS concentration: cells recovered at 3 and 24 hours after treatment, DMSO treatment group below the detection limit; for concentration of 14-dehydrozymosterol: same treatment as for FF-MAS, cells recovered at 3 and 24 hours
Procedure: After mouse myoblast cell line C2C12 cells into which human mutant SOD1 (G93A) was introduced were myotube-like differentiated, the cells were treated with sterol C14-reductase inhibitors (TM7SF2 inhibitors) (amorolfine, ziprasidone, and ifenprodil), and the fluctuation of sterol in the cells was evaluated. In other words, in order to differentiate C2C12 cells into myotubes, C2C12 cells that had been cultured using 15% FBS-DMEM (Dulbecco's modified Eagle's medium containing 15% fetal bovine serum and 100 units/mL penicillin-100 μg/mL streptomycin) were cultured for 2 days in a culture flask after the medium was replaced with a low-serum medium (Dulbecco's modified Eagle's medium containing 0.5% FBS, 1% insulin-transferrin-selenium, and 100 units/mL penicillin-100 μg/mL streptomycin). Then, in order to remove proliferating undifferentiated cells, the medium was replaced with a low-serum medium containing 10 μmol/L arabinocytidine (AraC), and the cells were further cultured for 2 days. The myotube-like differentiated C2C12 cells were detached from the culture flask by treatment with 0.25% trypsin-1 mmol/L EDTA, and then the cells were seeded on a 3.5-cm culture dish coated with Matrigel at 2.4×10^5 cells/dish, and cultured for 3 days. After treatment with a sterol C14-reductase inhibitor (TM7SF2 inhibitor) or 0.03% DMSO, the cells were recovered at 3 and 24 hours. After removing the medium and washing with phosphate buffered saline (PBS), the cells were recovered with 200 µL of 90% methanol containing 1 μmol/L d7-cholesterol (internal standard substance), and further recovered again with 200 μL of a 90% methanol solution, so that a total of about 400 μL of a cell recovery solution was obtained. Then, 160 μL of this cell recovery solution was pretreated by a solid-phase extraction method using OASIS PRiME HLB glution Plate, and a sample eluted with methanol/IPA (1 : 1) was measured by high-performance liquid chromatography/atmospheric pressure chemical ionization-tandem mass spectrometry (LC/APCI-MS/MS), and each concentration in the recovery solution was calculated by an internal standard calibration curve method.

[5] = tested on: C2C12 cells in which human mutant SOD1 (G93A) was overexpressed alone and mouse primary motor neurons; assay: Neuromuscular junction formation in co-culture, C2C12 overexpressing human mutant SOD1 (G93A) alone; assay type: cell-based; conditions: day 11
[6] = tested on: C2C12 cells in which both human mutant SOD1 (G93A) and a human TM7SF2 gene were overexpressed and mouse primary motor neurons; assay: Neuromuscular junction formation in co-culture, C2C12 overexpressing human mutant SOD1 (G93A) and human TM7SF2; assay type: cell-based; conditions: same concentration range (0.1, 0.3, 1, and 3 μmol/L), day 11
[7] = tested on: myasthenia gravis model rat; assay: Rat myasthenia gravis model (mAb35 induced), grip strength; assay type: in vivo; conditions: grip strength at 96 hours after induction by mAb35; repeated oral administration once a day; versus control (Dunnett's test)
Procedure: The efficacy of ifenprodil, which is a sterol C14-reductase inhibitor (TM7SF2 inhibitor), in a rat myasthenia gravis model was evaluated. The rat myasthenia gravis model is a model in which a neuromuscular junction (NMJ) is impaired and motor functions such as grip strength are declined by treating a rat with mAb35, which is an antibody against an anti-acetylcholine receptor. First, an anti-acetylcholine receptor antibody mAb35 (Bio X Cell, product number BE0123) as an inducing agent was intraperitoneally administered to a 5-week-old female LEW/CrlCrlj rat at a concentration of 0.29 mg/mL and a volume of 5 mL/kg to induce a pathological condition. Ifenprodil (MedChemExpress, product number HY-12882A) as a test substance was dissolved in water for injection (Otsuka Pharmaceutical Factory, Inc.) containing 2% DMSO so that the concentration is 0.1, 0.3, and 1 mg/mL to prepare an administration solution. Ifenprodil was repeatedly orally administered once a day at doses of […] from 9 hours after induction by administration of mAb35 to 4 days after induction as the evaluation end date. […] The grip strength was measured on the day before induction (pre-value). […] For quantitative evaluation of the grip strength, a grip strength measuring device Traction Meter (BrainScience idea Co., Ltd.) was used.

## CC(C)=CCC[C@@H](C)[C@H]1CC=C2C3=C(CC[C@@]21C)[C@@]1(C)CC[C@H](O)C[C@@H]1CC3 [14-dehydrozymosterol, 5alpha-cholesta-8,14,24-trien-3beta-ol]
[1]
  concentration from which the positive area of the neuromuscular junction was significantly increased: 10 µmol/L

## CC(C)=CCC[C@@H](C)[C@H]1CC=C2C3=C(CC[C@@]21C)[C@@]1(C)CC[C@H](O)C(C)(C)[C@@H]1CC3 [FF-MAS, 4,4-dimethyl-5alpha-cholesta-8,14,24-trien-3beta-ol]
[1]
  concentration from which the positive area of the neuromuscular junction was significantly increased: 10 µmol/L
[2]
  concentration from which the sum of neurite lengths was significantly increased: 1.1 µmol/L
[3]
  concentration from which the value of MAG/number of cell nuclei was significantly increased: 3 µmol/L

## COc1ccc(S(=O)(=O)N2CCC(N3CCC(C)CC3)CC2)cc1 [TASIN-1]
[1]
  positive area of the neuromuscular junction: no significant increase

## CCC(C)(C)c1ccc(CC(C)CN2C[C@@H](C)O[C@@H](C)C2)cc1 (stereo partly shown) [amorolfine]
[4]
  intracellular FF-MAS concentration: increase
  concentration of 14-dehydrozymosterol: increase
[1]
  concentration from which the positive area of the neuromuscular junction was significantly increased: 0.3 µmol/L
[2]
  concentration from which the sum of neurite lengths was significantly increased: 0.3 µmol/L
[5]; at 1 μmol/L
  positive area of the neuromuscular junction: significantly increased
[5]; at 3 mol/L
  positive area of the neuromuscular junction: significantly increased
[6]
  positive area of the neuromuscular junction: no increasing fluctuation

## CC(C(O)c1ccc(O)cc1)N1CCC(Cc2ccccc2)CC1 (stereo not shown) [ifenprodil]
[4]
  intracellular FF-MAS concentration: increase
  concentration of 14-dehydrozymosterol: increase
[1]
  concentration from which the positive area of the neuromuscular junction was significantly increased: 1 µmol/L
[2]
  concentration from which the sum of neurite lengths was significantly increased: 1 µmol/L
[7]
  dose from which the grip strength was significantly improved: 3 mg/kg

## O=C1Cc2cc(CCN3CCN(c4nsc5ccccc45)CC3)c(Cl)cc2N1 [ziprasidone]
[4]
  intracellular FF-MAS concentration: increase
  concentration of 14-dehydrozymosterol: increase
[1]
  concentration from which the positive area of the neuromuscular junction was significantly increased: 3 µmol/L
[2]
  concentration from which the sum of neurite lengths was significantly increased: 1 µmol/L

## CC(C)=CCC[C@@H](C)[C@H]1CC[C@H]2C3=C(CC[C@]12C)[C@@]1(C)CC[C@H](O)C[C@@H]1CC3 [zymosterol]
[1]; added at 0.05 to 10 μmol/L
  positive area of the neuromuscular junction: no significant increase
